This experiment deals with P388. The experiment is described as follows: Cytotoxicity against mouse P388 cells. Format: functional, cell-based.

The record followed here is ChEMBL document CHEMBL1154544, “Antitumour polyether macrolides: four new halichondrins from the New Zealand deep-water marine sponge Lissodendoryx sp” (Bioorg Med Chem, 2009).

Converted amounts (≈) assume the structure as drawn.

Usually IC50 stands for the concentration needed to halve the response being measured. In turn, `C=C1C[C@@H]2CC[C@@]34C[C@H]5O[C@H]6[C@@H](O3)[C@H]3O[C@H](CC[C@@H]3O[C@H]6[C@H]5O4)CC(=O)O[C@@H]3[C@@H](C)[C@@H]4O[C@@H]5C[C@]6(C[C@@H]7O[C@]8(C[C@H](C)[C@@H]9O[C@@H]%10CC(=O)O[C@@H]%10C[C@@H]9O8)C[C@H](C)[C@@H]7O6)O[C@@H]5C[C@@H]4O[C@H]3C[C@H]3O[C@@H](CC[C@@H]1O2)C[C@@H](C)C3=C` had a 50% inhibitory concentration (IC50) of 1.1 ng/mL (≈ 1.02 nM).
As for `C=C1C[C@@H]2CC[C@@]34C[C@H]5O[C@H]6[C@@H](O3)[C@H]3O[C@H](CC[C@@H]3O[C@H]6[C@H]5O4)CC(=O)O[C@@H]3[C@@H](C)[C@@H]4O[C@@H]5C[C@]6(C[C@@H]7O[C@]8(C[C@H](C)[C@@H]9OC(=O)C[C@@H]9O8)C[C@H](C)[C@@H]7O6)O[C@@H]5C[C@@H]4O[C@H]3C[C@H]3O[C@@H](CC[C@@H]1O2)C[C@@H](C)C3=C`, the figure is 1.1 ng/mL (≈ 1.08 nM); as for `C=C1C[C@@H]2CC[C@@]34C[C@H]5O[C@H]6[C@@H](O3)[C@H]3O[C@H](CC[C@@H]3O[C@H]6[C@H]5O4)CC(=O)O[C@@H]3[C@@H](C)[C@@H]4O[C@@H]5C[C@]6(C[C@@H]7O[C@]8(C[C@H](C)[C@@H]9O[C@@H]%10CC(C(O)CCl)O[C@@H]%10C[C@@H]9O8)C[C@H](C)[C@@H]7O6)O[C@@H]5C[C@@H]4O[C@H]3C[C@H]3O[C@@H](CC[C@@H]1O2)C[C@@H](C)C3=C` (some centres not stated), 2 ng/mL (≈ 1.75 nM); as for `C=C1C[C@@H]2CC[C@@]34C[C@H]5O[C@H]6[C@@H](O3)[C@H]3O[C@H](CC[C@@H]3O[C@H]6[C@H]5O4)CC(=O)O[C@@H]3[C@@H](C)[C@@H]4O[C@@H]5C[C@]6(C[C@@H]7O[C@]8(C[C@H](C)[C@@H]9O[C@H](CC(C)=O)[C@H](O)C[C@@H]9O8)C[C@H](C)[C@@H]7O6)O[C@@H]5C[C@@H]4O[C@H]3C[C@H]3O[C@@H](CC[C@@H]1O2)C[C@@H](C)C3=C`, 0.76 ng/mL (≈ 0.695 nM).
Next, `C=C1C[C@@H]2CC[C@@]34C[C@H]5O[C@H]6[C@@H](O3)[C@H]3O[C@H](CC[C@@H]3O[C@H]6[C@H]5O4)CC(=O)O[C@@H]3[C@@H](C)[C@@H]4O[C@@H]5C[C@]6(C[C@@H]7O[C@]8(C[C@H](C)[C@@H]9O[C@H]([C@@H](O)C[C@@H](O)CO)C[C@@H]9O8)C[C@H](C)[C@@H]7O6)O[C@@H]5C[C@@H]4O[C@H]3C[C@H]3O[C@@H](CC[C@@H]1O2)C[C@@H](C)C3=C` [HALICHONDRIN B]: 0.78 ng/mL (≈ 0.702 nM); `C=C1C[C@@H]2CC[C@@]34C[C@H]5O[C@H]6[C@@H](O3)[C@H]3O[C@H](CC[C@@H]3O[C@H]6[C@H]5O4)CC(=O)O[C@@H]3[C@@H](C)[C@@H]4O[C@@H]5C[C@]6(C[C@@H]7O[C@]8(C[C@H](C)[C@@H]9O[C@@H]%10CC(C(O)CO)O[C@@H]%10C[C@@H]9O8)C[C@H](C)[C@@H]7O6)O[C@@H]5C[C@@H]4O[C@H]3C[C@H]3O[C@@H](CC[C@@H]1O2)C[C@@H](C)C3=C` (some centres not stated) [HOMOHALICHONDRIN B]: 0.22 ng/mL (≈ 0.196 nM); `C=C1C[C@@H]2CC[C@@]34C[C@H]5O[C@H]6[C@@H](O3)[C@H]3O[C@H](CC[C@@H]3O[C@H]6[C@H]5O4)CC(=O)O[C@@H]3[C@@H](C)[C@@H]4O[C@@H]5C[C@]6(C[C@@H]7O[C@]8(C[C@H](C)[C@@H]9O[C@H](CC(=O)CCO)[C@H](O)C[C@@H]9O8)C[C@H](C)[C@@H]7O6)O[C@@H]5C[C@@H]4O[C@H]3C[C@H]3O[C@@H](CC[C@@H]1O2)C[C@@H](C)C3=C` [ISOHOMOHALICHONDRIN B]: 0.18 ng/mL (≈ 0.16 nM).
